Test results: patent US20220039395A1, “INSECT CONTROL AGENTS” (priority 2018, published 2022)
“Also recorded” adds a separate entry of the source. Numbered stars: 1 amine (or outer) side, 2 acyl side, 3 side chain; on linkers, the order of the positions; unused ones are H or OH. Peptide text beside a SMILES is read from it. * marks the point of attachment. X1 = Brc1ccc2c(c1)-c1cc(N*)ccc1C2; Suc = O=C(CCC(=O)[*:2])[*:1]

What was measured:
Format in all cases: in vivo
[1] = system: Macrosiphum rosae; assay: Desiccation/starvation tolerance assay after peptide microinjection; details: for Reduction of LTime50 relative to control / Reduction of median survival relative to control: M. rosae, desiccation/starvation stress; for Documented effect on desiccation/starvation mortality / LTime50 (h), test / Median IQR survival (h), test: Macrosiphum rosae, microinjection; for Documented effect on desiccation/starvation mortality: final concentration ×10^−5 M, relative to vehicle control; for LTime50 (h), test / Median IQR survival (h), test: ×10^−5 M, desiccation and starvation stress, test group
Protocol: (§1) Neuropeptides were administered to test aphids via microinjection to allow for rapid mass screening of neuropeptide analogue efficacy. For this, native neuropeptides were diluted in double distilled water (DDH2O) to a concentration of 1×10^−5 M. Neuropeptide analogues were diluted in DDH2O to the following concentrations: kinin analogues 1728 (2.5×10^−5 M), 2139 (3.5×10^−5 M), 2139-Ac (3.5×10^−5 M); CAP2b analogues 1895 (3.5×10^−5 M), 1896 (3.5×10^−5 M), 1902 (3.5×10^−5 M), 2089 (3.9×10^−5 M), 2123 (1.0×10^−5 M), 2125 (1.0×10^−5 M), 2129 (2.0×10^−5 M). Once at the desired concentration, neuropeptide solutions were administered to test aphids at an injection volume of 9 nl based on total haemolymph volume, to produce an approximate 1:20 dilution of injection volume to haemolymph. Injections were performed using a pulled glass needle and a Nanoject II Auto-Nanoliter Injector (Drummond Scientific Company, Broomall, Pa.). A vehicle control was set up for each treatment/day of experiments to account for variation in needle pulling. For this, control aphids were injected with 9 nl of DDH2O and subsequently exposed to the same experiments as aphids receiving the neuropeptide treatment. Neuropeptide treated and vehicle control aphids were subsequently used in the stress bioassays detailed below.
(§2) Anholocyclic adults of mixed age of either M. persicae or M. rosae were selected from the stock cultures and treated with a native neuropeptide or neuropeptide analogue via microinjection using the method detailed above. Treated and vehicle control aphids were allowed to recover on excised leaves of the host plant for 1 h before being placed in an empty ventilated microcage (L=4 cm, 0=9.5 cm) at densities of 10 per cage. In total, 30-40 aphids were treated for each neuropeptide treatment group and a further 30-40 for the associated vehicle control group. From the point of placement in the microcage (taken as 0 h), aphid survival was checked every hour during daylight hours and approximately every 4 h during night-time hours until the final aphid died. Survival data were subsequently analysed using a Log-rank (Mantel-Cox) text in GraphPad Prism version 7.0. LTime50 (the time taken to kill 50% of the test population) values were calculated via Probit Analysis in Minitab 17 (Minitab Inc., State College, Pa.).

[2] = system: Myzus persicae; assay: as above; details: for Reduction of LTime50 relative to control / Reduction of median survival relative to control: M. persicae, desiccation/starvation stress; for Documented effect on desiccation/starvation mortality / LTime50 (h), test / Median ± IQR survival (h), test: Myzus persicae, microinjection; for Documented effect on desiccation/starvation mortality: final concentration ×10^−5 M, relative to vehicle control; for LTime50 (h), test / Median ± IQR survival (h), test: ×10^−5 M, desiccation and starvation stress, test group
Protocol: as §1, §2

[3] = system: Myzus persicae; assay: Topical application by spraying, air brush; details: 750 μl, 1×10^−5M of each peptide in Tween 24 0.1%, counted 48 hours post spray
Protocol: Aphids were exposed to test peptides in the absence of additional external stress conditions.
Brassica rapa (Chinese cabbage; Wong Bok) were infested with 30 adult Myzus persicae aphids per plant. Aphids were left at least 2 hours to settle and begin feeding from the host plant.
Spraying took place inside an externally vented fume cupboard. […] To ensure spray tracking, all sprayed solutions had amaranth dye added, allowing the full surface of the plant to be evenly coated with the aerosolised compound.
The plants to be sprayed were placed inside a plastic disposal bag, inside the fume cupboard. This was used to control the area exposed to the aerosolised liquid, to avoid extensive spraying and cleaning inside the fume cupboard. The bag was further lined with absorbent paper towel to again help contain and control spray.
Each experiment had three controls:
i) no vehicle or peptide air spray only, negative control to assess effect of spraying on aphid ability to remain attached to the plant; ii) vehicle spray only (Tween 24 0.1%); and iii) Imidacloprid positive control (28.3 μM).
Imidacloprid was always applied last to prevent any possibility of stray pesticide being left inside the disposal bag and contaminating a test peptide applied plant.
Spray volumes for all solutions for this experiment 750 μl.
A clean air brush (ABEST AC06k30) was loaded with 750 μl of peptide solution diluted in […] 0.1% vehicle. For this experiment there were three test conditions: 1895 alone (1×10^−5M); 2129 alone (1×10^−5M); and a simultaneous co-application of 1895+2129 together (1×10^−5M of each peptide). During application, the air brush was held within the plastic bag and the compressor turned on. The air brush was then gently sprayed back and forth across the plant. […]
Post peptide application, each condition was placed into its own individual Bugdorm (Watkins and Doncaster, 44545), to prevent repulsed or displaced aphids moving from one condition to another. Numbers of alive and dead aphids on the plant were counted 48 hours post spray, and the presence of any fresh nymphs noted. […]

Compound	Reduction of LTime50 relative to control [1]	Reduction of median survival relative to control [1]	Documented effect on desiccation/starvation mortality [1]	LTime50 (h), test [1]	Median IQR survival (h), test [1]	Reduction of LTime50 relative to control [2]	Reduction of median survival relative to control [2]	Documented effect on desiccation/starvation mortality [2]	LTime50 (h), test [2]	Median ± IQR survival (h), test [2]	% Lethality [3]
CC[C@H](C)[C@H](NC(=O)[C@H](CCCNC(=N)N)NC(=O)[C@@H]1CCCN1C(=O)[C@@H](NC(=O)[C@H](C)NC(=O)CCC(=O)Nc1ccc2c(c1)-c1cc(Br)ccc1C2)[C@@H](C)O)C(N)=O [compound 2129, 2Abf-Suc-ATPRI-NH2] ({X1-Suc}-ATPRI-NH2)	11.6 h	12.8 h	significantly increase mortality relative to the control; also recorded: significantly increased desiccation/starvation mortality; also recorded: Increases	24.3 | 12.7 h	23.8 ± 20.5 | 11.0 ± 13.0 h	7.1 h	9.8 h	significantly increase mortality relative to the control; also recorded: significantly increased desiccation/starvation mortality; also recorded: Increases	15.9 | 8.8 h	17.8 ± 12.0 | 8.0 ± 17.0 h	30%
2Abf-Suc-FGPRL-NH2 [compound 1895]	9.6 h	10.5 h	significantly increase mortality relative to the control; also recorded: significantly increased desiccation/starvation mortality; also recorded: Increases	18.7 | 9.1 h	17.5 ± 19.5 | 7.0 ± 12.5 h	3.5 h	4.0 h	significantly increase mortality relative to the control; also recorded: significantly increased desiccation/starvation mortality; also recorded: Increases	15.9 | 12.4 h	17.8 ± 12.0 | 13.8 ± 11.8 h	27%
